In brackets after ≈: the same amount, converted by molar mass.
What was measured:
[1] = test system: E. coli transcription and translation (TnT); assay type: biochemical
E. faecalis MGH-2 = experiment: Antibacterial assay (Test A), microtitration MIC, Gram positive; assay type: cell-based; conditions: Gram Positive Bacteria, strain MGH-2; for MIC: Enterococcus faecalis, MGH2, read-out: Minimum Inhibitory Concentrations E. faecalis MGH-2
Method: (§1) The compounds of the present invention were tested against an assortment of Gram-negative and Gram-positive organisms using standard microtitration techniques (Cohen et. al., Antimicrob., 1985;28:766;Heifetz, et. al., Antimicrob., 1974;6: 124).

S. aureus UC-76 = experiment: as above; assay type: cell-based; conditions: Gram Positive Bacteria, strain UC-76; for MIC: Staphylococcus aureus, UC76, read-out: Minimum Inhibitory Concentrations S. aureus UC-76
Method: as §1

S pyogenes C203 = experiment: as above; assay type: cell-based; conditions: Gram Positive Bacteria, strain C203; for MIC: read-out: Minimum Inhibitory Concentrations S pyogenes C203
Method: as §1

E. coli Tol C = experiment: Antibacterial assay (Test A), microtitration MIC, Gram negative; assay type: cell-based; conditions: for MIC: Escherichia coli, read-out: Minimum Inhibitory Concentrations E. coli Tol C
Method: as §1

H. influenzae HI3542 = experiment: as above; assay type: cell-based; conditions: Gram Negative Bacteria, strain HI3542; for MIC: Haemophilus influenzae, read-out: Minimum Inhibitory Concentrations H. influenzae HI3542
Method: as §1

M. catarrhalis BC3534 = experiment: as above; assay type: cell-based; conditions: Gram Negative Bacteria, strain BC3534; for MIC: Moraxella catarrhalis, read-out: Minimum Inhibitory Concentrations M. catarrhalis BC3534
Method: as §1

Compound	Inhibitory concentration in E. coli cell-free transcription/translation (TnT) assay [1] [µg/mL]	MIC (E. faecalis MGH-2) [µg/mL]	MIC (S. aureus UC-76) [µg/mL]	MIC (S pyogenes C203) [µg/mL]	MIC (E. coli Tol C) [µg/mL]	MIC (H. influenzae HI3542) [µg/mL]	MIC (M. catarrhalis BC3534) [µg/mL]	Minimum Inhibitory Concentrations E. faecalis MGH-2 (E. faecalis MGH-2) [µg/mL]	Minimum Inhibitory Concentrations S. aureus UC-76 (S. aureus UC-76) [µg/mL]	Minimum Inhibitory Concentrations S pyogenes C203 (S pyogenes C203) [µg/mL]	Minimum Inhibitory Concentrations E. coli Tol C (E. coli Tol C; Gram Negative Bacteria, strain Tol C) [µg/mL]	Minimum Inhibitory Concentrations H. influenzae HI3542 (H. influenzae HI3542) [µg/mL]	Minimum Inhibitory Concentrations M. catarrhalis BC3534 (M. catarrhalis BC3534) [µg/mL]
COc1c(N2CCCc3cc(N4C[C@H](CNC(C)=O)OC4=O)ccc3C2)c(F)cc2c(=O)c(C(=O)O)cn(C3CC3)c12 (stereo in doubt) [Example 4, 7-{7-[5-(Acetylamino-methyl)-2-oxo-oxazolidin-3-yl]-1,3,4,5-tetrahydro-benzo[c]azepin-2-yl}-1-cyclopropyl-6-fluoro-8-methoxy-4-oxo-1,4-dihydro-quinoline-3-carboxylic Acid]	4.0	1 (≈ 1.73 µM)	0.06 (≈ 0.104 µM)	1 (≈ 1.73 µM)	2 (≈ 3.46 µM)	0.06 (≈ 0.104 µM)	0.5 (≈ 0.864 µM)						
CC(=O)NC[C@H]1CN(c2ccc3c(c2)CCN(c2cc4c(c(C)c2F)c(=O)c(C(=O)O)cn4C2CC2)CC3)C(=O)O1 [Example 11, 7-{7-[5-(Acetylamino-methyl)-2-oxo-oxazolidin-3-yl]-1,2,4,5-tetrahydro-benzo[d]azepin-3-yl}-1-cyclopropyl-6-fluoro-5-methyl-4-oxo-1,4-dihydro-quinoline-3-carboxylic Acid]	10	8 (≈ 14.2 µM)	0.06 (≈ 0.107 µM)	16 (≈ 28.4 µM)	8 (≈ 14.2 µM)	0.06 (≈ 0.107 µM)	0.5 (≈ 0.889 µM)						
CC(=O)NC[C@H]1CN(c2ccc3c(c2)CCCN(c2cc4c(c(C)c2F)c(=O)c(C(=O)O)cn4C2CC2)C3)C(=O)O1 [Example 3, 7-{7-[5-(Acetylamino-methyl)-2-oxo-oxazolidin-3-yl]-1,3,4,5-tetrahydro-benzo[c]azepin-2-yl}-1-cyclopropyl-6-fluoro-5-methyl-4-oxo-1,4-dihydro-quinoline-3-carboxylic Acid]		32 (≈ 56.9 µM)	1 (≈ 1.78 µM)	16 (≈ 28.4 µM)	32 (≈ 56.9 µM)	0.06 (≈ 0.107 µM)	16 (≈ 28.4 µM)						
CCn1cc(C(=O)O)c(=O)c2cc(F)c(N3CCCc4cc(N5C[C@H](CNC(C)=O)OC5=O)ccc4C3)nc21 [Example 17, 7-{7-[5-(Acetylamino-methyl)-2-oxo-oxazolidin-3-yl]-1,3,4,5-tetrahydro-benzo[c]azepin-2-yl}-1-ethyl-6-fluoro-4-oxo-1,4-dihydro-[1,8]naphthyridine-3-carboxylic Acid]		64 (≈ 119 µM)	64 (≈ 119 µM)	64 (≈ 119 µM)	64 (≈ 119 µM)	0.5 (≈ 0.93 µM)	64 (≈ 119 µM)						
CC(=O)NC[C@H]1CN(c2ccc3c(c2)CCN(c2c(F)cc4c(=O)c(C(=O)O)cn(C5CC5)c4c2F)CC3)C(=O)O1 [Example 12, 7-{7-[5-(Acetylamino-methyl)-2-oxo-oxazolidin-3-yl]-1,2,4,5-tetrahydro-benzo[d]azepin-3-yl}-1-cyclopropyl-6,8-difluoro-4-oxo-1,4-dihydro-quinoline-3-carboxylic Acid]	9.3	1 (≈ 1.77 µM)	0.25 (≈ 0.441 µM)	1 (≈ 1.77 µM)	4 (≈ 7.06 µM)	0.06 (≈ 0.106 µM)	0.25 (≈ 0.441 µM)						
CC(=O)NC[C@H]1CN(c2ccc3c(c2)CCCN(c2nc4c(cc2F)c(=O)c(C(=O)O)cn4C2CC2)C3)C(=O)O1 (stereo in doubt) [Example 15, 7-{7-[5-(Acetylamino-methyl)-2-oxo-oxazolidin-3-yl]-1,3,4,5-tetrahydro-benzo[c]azepin-2-yl}-1-cyclopropyl-6-fluoro-4-oxo-1,4-dihydro-[1,8]naphthyridine-3-carboxylic Acid]		4 (≈ 7.28 µM)	2 (≈ 3.64 µM)	4 (≈ 7.28 µM)	4 (≈ 7.28 µM)	0.06 (≈ 0.109 µM)	4 (≈ 7.28 µM)						
7-{7-[5-(Acetylamino-methyl)-2-oxo-oxazolidin-3-yl]-1,3,4,5-tetrahydro-benzo[c]azepin-2-yl}-1-cyclopropyl-8-difluoromethoxy-6-fluoro-4-oxo-1,4-dihydro-[1,8]naphthyridine-3-carboxylic Acid [Example 18]								8	1	0.06	16	0.06	2

Source: US7304050B2, “Antibacterial agents” (Pfizer Inc., priority 2003, dated 2007)
